# Source: patent US6900216B2, “Dihydroimidazo[2,1-b]thiazole and dihydro-5h-thiazolo[3,2-A]pyrimidines as antidepressant agents” (Knoll GmbH, priority 2000, dated 2005)
# Target: T1, 5-HT1A receptors (Rattus norvegicus, UniProt P19327)
# T1 construct: Hippocampal tissue from the brains of male Sprague-Dawley rats; from tissue; host or cells: rat hippocampal membranes
# T1 sequence (P19327 1-422): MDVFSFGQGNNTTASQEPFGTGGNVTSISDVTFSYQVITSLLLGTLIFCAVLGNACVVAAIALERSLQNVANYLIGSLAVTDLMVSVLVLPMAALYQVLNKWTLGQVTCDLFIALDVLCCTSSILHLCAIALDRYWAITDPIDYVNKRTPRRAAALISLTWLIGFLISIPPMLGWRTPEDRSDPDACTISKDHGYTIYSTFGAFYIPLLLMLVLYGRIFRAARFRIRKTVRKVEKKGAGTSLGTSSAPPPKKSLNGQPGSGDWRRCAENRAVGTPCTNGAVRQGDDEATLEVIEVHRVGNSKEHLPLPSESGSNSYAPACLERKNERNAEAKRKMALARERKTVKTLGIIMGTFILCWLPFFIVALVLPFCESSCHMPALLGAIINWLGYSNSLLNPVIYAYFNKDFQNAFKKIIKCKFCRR
# Test: 5-HT1A binding: inhibition of [3H]8-OH-DPAT binding to rat hippocampal membranes
# Settings: 10^−6 M test compound, single determination, [3H]8-OH-DPAT; read-out: 5-HT1A % displacement at 10^−6 M
# Experimental: Hippocampal tissue from the brains of male Sprague-Dawley rats (Charles River; weight range 150-250 g) was homogenised in ice-cold 50 mM Tris-HCl buffer (pH 7.7 when measured at 25° C., 1:40 w/v) and centrifuged at 40,000 g at 4° C. for 10 minutes. The pellet was rehomogenised in the same buffer, incubated at 37° C. for 10 minutes and centrifuged at 40,000 g at 4° C. for 10 minutes. The final pellet was resuspended in 50 mM Tris-HCl buffer (pH 7.7) containing 4 mM CaCl2, 0.1% L-ascorbic acid and 10 μM pargyline hydrochloride (equivalent to 6.25 mg wet weight of tissue/ml) and used immediately in the binding assay.
# Membranes (400 μl; equivalent to 2.5 mg wet weight of tissue/tube) were incubated with 50 μl of [^3H]8-hydroxy-2-(dipropylamino)tetralin ([^3H]8-OH-DPAT) at a single concentration of 1 nM and 50 μl of distilled water (total binding) or 50 μl of test compound (at a single concentration of 10^−6 M or at 10 concentrations ranging from 10^−11-10^−3 M) or 50 μl of 5-HT (10 μM, non-specific binding) at 25° C. for 30 minutes. The incubation was terminated by rapid filtration under vacuum through Skatron 11734 filters using a Skatron Cell Harvester. Filters were washed with ice-cold 50 mM Tris-HCl buffer, pH 7.7 (at 25° C., wash setting 9,9,0). The scored filter paper discs were punched out into vials, scintillation fluid added and radioactivity determined by liquid scintillation counting.
# For each of these tests measuring the ability of compounds of Formula I to displace standard ligands from 5-HT1A receptors and 5-hydroxytryptamine (5-HT) and noradrenaline (NA) reuptake sites and muscarinic receptors in vitro, the percentage displacement of specific binding of tritiated ligand by 10^−6 M test compound was calculated in the following way.
# Firstly, specific binding of tritiated ligand in the absence (A) and presence (B) of test compound was determined:
# In the absence of compound: A(dpm)=Total binding (dpm)−Non-specific binding (dpm) In the presence of compound (10^−6 M): B(dpm)=Binding at 10^−6M (dpm)−Non-specific binding (dpm)
# The specific binding of tritiated ligand in the presence (B) of compound was then converted to a percentage of specific binding of tritiated ligand in the absence (A) of compound: % Specific binding at 10^−6 M=B(dpm)/A(dpm)×100
# The percentage displacement of specific binding of tritiated ligand by the test compound (10^−6 M) was then obtained by subtraction of the percentage specific binding in the presence of compound from the percentage specific binding in the absence of compound, which is taken as the maximum binding and so equals 100%:
# % Displacement at 10^−6 M=100−% Specific binding at 10^−6 M.
# In some cases, displacement curves were then produced for compounds which displaced ≧50% of specific binding of the tritiated ligand at 10^−6 M using a range of concentrations of the compound. The Ki was then calculated by simultaneous fitting using equations derived from the Feldman equations by robust non-linear regression to data from three experiments simultaneously (De Lean et al., 1978; Munson and Rodbard, 1980; Feldman, 1992). Munson P J and Rodbard D. Ligand: a versatile computerised approach for characterisation of ligand binding systems. Anal Biochem 1980; 107: 220. Feldman HA. Mathematical theory of complex ligand binding systems at equilibrium: some methods for parameter fitting. Anal Biochem 1992: 48, 317. De Lean A, Munson P J and Rodbard D. Simultaneous analysis of families of sigmoidal curves: application to bioassay, radioligand assay, and physiological dose-response curves. Am J Physiol 1978: 235 (2), E97-E102.
# The results obtained in the above tests for 5-HT1A binding and 5-HT and NA uptake and muscarinic binding for the final products of Examples 1-39 hereinafter are given in Table 1 below. Kis are in nM. % Figures are for % displacement at 10^−6 M for a single determination.
row,SMILES,inhibition at 1 µM [%]
1,"CSC1=C(c2ccc3sccc3c2)N2CCN=C2S1 [Example 30, 3-(benzo[b]thiophen-5-yl)-2-(methylthio)-5,6-dihydroimidazo[2,1-b]thiazole]",66

# Same assay, conditions: [3H]8-OH-DPAT 1 nM, rat hippocampal membranes; fit to data from three experiments
row,SMILES,Ki [nM]
1,"CSC1=C(c2cc3ccccc3s2)N2CCN=C2S1 [Example 19, 3-(benzo[b]thiophen-2-yl)-2-(methylthio)-5,6-dihydroimidazo[2,1-b]thiazole]",134
2,"Br.CC1=C(c2ccc3sccc3c2)N2CCN=C2S1 [Example 21, 3-(benzo[b]thiophen-5-yl)-2-methyl-5,6-dihydroimidazo[2,1-b]thiazole hydrobromide]",31
3,"CC1=C(c2cccc3ccsc23)N2CCN=C2S1.Cl [Example 23, 3-(benzo[b]thiophen-7-yl)-2-methyl-5,6-dihydroimidazo[2,1-b]thiazole hydrochloride]",20
4,"OCC1=C(c2ccc3sccc3c2)N2CCN=C2S1 [Example 28, [3-(benzo[b]thiophen-5-yl)-5,6-dihydroimidazo[2,1-b]-thiazol-2-yl]methanol]",38.5
5,"CC(C)C1=C(c2ccc3sccc3c2)N2CCN=C2S1 [Example 29, 3-(benzo[b]thiophen-5-yl)-2-(1-methylethyl)-5,6-dihydroimidazo[2,1-b]-thiazole]",83
6,"CCC1=C(c2ccc3sccc3c2)N2CCN=C2S1.O=C(O)/C=C/C(=O)O [Example 31, 3-(benzo[b]thiophen-5-yl)-2-ethyl-5,6-dihydroimidazo[2,1-b]thiazole fumarate]",102
7,"CSC1=C(c2cccc3sccc23)N2CCN=C2S1.O=C(O)/C=C/C(=O)O [Example 32, 3-(benzo[b]thiophen-4-yl)-2-(methylthio)-5,6-dihydroimidazo[2,1-b]thiazole fumarate]",93
8,"Br.c1cc(C2=C(C3CC3)SC3=NCCN32)c2ccsc2c1 [Example 34, 3-(benzo[b]thiophen-4-yl)-2-cyclopropyl-5,6-dihydroimidazo[2,1-b]thiazole hydrobromide]",45
9,"CC(C)C1=C(c2cccc3sccc23)N2CCN=C2S1.O=C(O)/C=C/C(=O)O [Example 35, 3-(benzo[b]thiophen-4-yl)-2-(1-methylethyl)-5,6-dihydroimidazo[2,1-b]thiazole fumarate]",151
10,"Br.C=CCC1=C(c2cccc3sccc23)N2CCN=C2S1 [Example 36, 2-allyl-3-(benzo[b]thiophen-4-yl)-5,6-dihydroimidazo[2,1-b]thiazole hydrobromide]",40
11,"Br.CC1=C(c2ccc3ccsc3c2)N2CCN=C2S1 [Example 37, 3-(benzo[b]thiophen-6-yl)-2-methyl-5,6-dihydroimidazo[2,1-b]thiazole hydrobromide]",2.1
12,"Br.CC1=C(c2ccc(F)c3sccc23)N2CCN=C2S1 [Example 38, 3-(7-fluorobenzo[b]thiophen-4-yl)-2-methyl-5,6-dihydroimidazo[2,1-b]thiazole hydrobromide]",29

# Same assay, conditions: read-out: 5-HT1A % displacement at 10^−6 M
row,SMILES,inhibition at 1 µM [%]
1,"Br.CC1=C(c2cc3cccc(Cl)c3s2)N2CCN=C2S1 [Example 20, 3-(7-chlorobenzo[b]thiophen-2-yl)-2-methyl-5,6-dihydroimidazo[2,1-b]thiazole hydrobromide]",98
2,"CSC1=C(c2cccc3sccc23)N2CCN=C2S1.Cl [Example 22, 3-(benzo[b]thiophen-4-yl)-2-(methylthio)-5,6-dihydroimidazo[2,1-b]thiazole hydrochloride]",88
3,"Br.CC1=C(c2cc3c(Cl)c(Cl)ccc3s2)N2CCN=C2S1 [Example 24, 3-(4,5-dichlorobenzo[b]thiophen-2-yl)-2-methyl-5,6-dihydroimidazo[2,1-b]-thiazole hydrobromide]",76
4,"CCC1=C(c2cccc3sccc23)N2CCN=C2S1.O=C(O)/C=C/C(=O)O [Example 25, 3-(benzo[b]thiophen-4-yl)-2-ethyl-5,6-dihydroimidazo[2,1-b]thiazole fumarate]",92
5,"Br.COc1cccc2cc(C3=C(C)SC4=NCCN43)sc12 [Example 26, 3-(7-methoxybenzo[b]thiophen-2-yl)-2-methyl-5,6-dihydroimidazo[2,1-b]thiazole hydrobromide]",90
6,"Br.CC1(c2cc3cc(F)ccc3s2)CSC2=NCCN21 (stereo not drawn) [Example 27, 3-(5-fluorobenzo[b]thiophen-2-yl)-3-methyl-5,6-dihydroimidazo[2,1-b]thiazole hydrobromide]",88
7,"CC1=C(c2cccc3sc(C)cc23)N2CCN=C2S1.Cl [Example 33, 2-methyl-3-(2-methylbenzo[b]thiophen-4-yl)-5,6-dihydroimidazo[2,1-b]thiazole hydrochloride]",99
8,"C=CC1=C(c2cccc3sccc23)N2CCN=C2S1.Cl [Example 39, 3-(benzo[b]thiophen-4-yl)-2-vinyl-5,6-dihydroimidazo[2,1-b]thiazole hydrochloride]",85
